According to ChEMBL document CHEMBL2413045, “Synthesis, self-aggregation and biological properties of alkylphosphocholine and alkylphosphohomocholine derivatives of cetyltrimethylammonium bromide, cetylpyridinium bromide, benzalkonium bromide (C16) and benzethonium chloride” (Eur J Med Chem, 2013):
pIC50: −log10 of the molar value. ≈ marks a conversion by molar mass, not a printed value.

Tests used:
[1] = tested on: MCF7; assay: Cytotoxicity against human MCF7 cells after 72 hrs by MTT assay; format: functional, cell-based; settings: MCF7, 72 h
[2] = tested on: HUVEC; assay: Cytotoxicity against HUVEC after 72 hrs by MTT assay; format: ADME, cell-based; settings: Homo sapiens
[3] = tested on: CCRF-CEM; assay: Cytotoxicity against human CCRF-CEM cells after 72 hrs by MTT assay; format: functional, cell-based
[4] = tested on: Acanthamoeba quina; assay: Amoebicidal activity against Acanthamoeba quina clinical isolate AcaVNAK03 assessed as minimum trophocidal concentration after 48 hrs by trypan blue exclusion assay; format: functional; settings: clinical isolate AcaVNAK03, 48 h
[5] = tested on: HeLa; assay: Cytotoxicity against human HeLa cells after 72 hrs by MTT assay; format: functional, cell-based
[6] = tested on: MDA-MB-231; assay: Cytotoxicity against human MDA-MB-231 cells after 72 hrs by MTT assay; format: functional, cell-based; settings: MDA-MB-231, 72 h
[7] = tested on: A549; assay: Cytotoxicity against human A549 cells after 72 hrs by MTT assay; format: functional, cell-based; settings: A549, 72 h
[8] = tested on: Acanthamoeba lugdunensis; assay: Amoebicidal activity against Acanthamoeba lugdunensis clinical isolate AcaVNAK02 assessed as minimum trophocidal concentration after 48 hrs by trypan blue exclusion assay; format: functional; settings: clinical isolate AcaVNAK02, 48 h
[9] = tested on: Candida albicans; assay: microbe, parasite or virus in culture; format: functional; settings: ATCC 60193, 48 h
Description: (§1) Antimycotic activity against Candida albicans ATCC 60193 after 48 hrs by NCCLS M-27 microdilution assay

[10] = tested on: MCF7; assay: Selectivity index, ratio of IC50 for HUVEC to IC50 for human MCF7 cells
[11] = tested on: A549; assay: Selectivity index, ratio of IC50 for HUVEC to IC50 for human A549 cells
[12] = tested on: Candida albicans; assay: Ratio of cetylpyridinium bromide MIC to compound MIC for Candida albicans ATCC 60193; format: functional
[13] = tested on: Candida albicans; settings: ATCC 60193
Description: as §1

[14] = tested on: Acanthamoeba quina; settings: clinical isolate AcaVNAK03
[15] = tested on: Acanthamoeba lugdunensis; settings: clinical isolate AcaVNAK02

Molecule | pIC50 [1] | pIC50 [2] | pIC50 [3] | MTC [4] [µM] | pIC50 [5] | pIC50 [6] | pIC50 [7] | MTC [8] [µM] | MIC [9] [µM] | Ratio IC50 [10] | Ratio IC50 [11] | Ratio [12] | MIC [13] [µM] | MIC [14] [µM] | MIC [15] [µM]
CCCCCCCCCCCCCCCCOP(=O)([O-])OCCC[N+](C)(C)Cc1ccccc1 | 4.24 | < 4.00 | 4.21 | 250 | 4.21 | 4.36 | 4.24 | 125 | 7.9 (≈ 3.93 µg/mL) | – | – | – | – | – | –
CCCCCCCCCCCCCCCCOP(=O)([O-])OCCC[N+](C)(C)C | 4.34 | < 4.00 | 5.21 | 62.5 | 4.07 | 4.21 | 4.38 | 125 | 18.2 (≈ 7.67 µg/mL) | – | – | – | – | – | –
CCCCCCCCCCCCCCCCOP(=O)([O-])OCCC[n+]1ccccc1 | 4.30 | < 4.00 | 4.46 | 15.6 | 4.13 | 4.22 | 4.21 | 250 | 2.1 (≈ 0.927 µg/mL) | – | – | – | – | – | –
CCCCCCCCCCCCCCCCOP(=O)([O-])OCC[n+]1ccccc1 | 5.09 | 4.03 | 4.64 | 62.5 | 4.28 | 4.34 | 5.00 | 62.5 | 4 (≈ 1.71 µg/mL) | >10 | – | – | – | – | –
CCCCCCCCCCCCCCCCOP(=O)([O-])OCC[N+](C)(C)C [MILTEFOSINE] | 4.72 | < 4.00 | 4.68 | 125 | 4.13 | 4.46 | 5.07 | 250 | 2.2 (≈ 0.897 µg/mL) | – | >10 | – | – | – | –
CC(C)(C)CC(C)(C)c1ccc(OCCOP(=O)([O-])OCC[N+](C)(C)Cc2ccccc2)cc1 | < 4.00 | < 4.00 | < 4.00 | 500 | < 4.00 | < 4.00 | < 4.00 | 250 | > 100 | – | – | – | – | – | –
CCCCCCCCCCCCCCCC[N+](C)(C)Cc1ccccc1.[Br-] | 6.00 | 5.12 | 6.05 | 15.6 | 5.55 | 5.46 | 6.20 | 15.6 | 4.5 | – | >10 | 2 | – | – | –
CCCCCCCCCCCCCCCCOP(=O)([O-])OCC[N+](C)(C)Cc1ccccc1 | 4.12 | < 4.00 | 4.86 | > 500 | 4.25 | 4.35 | 4.14 | > 500 | 8.1 (≈ 3.92 µg/mL) | – | – | – | – | – | –
CC(C)(C)CC(C)(C)c1ccc(OCCOP(=O)([O-])OCCC[N+](C)(C)Cc2ccccc2)cc1 | < 4.00 | < 4.00 | < 4.00 | 125 | < 4.00 | < 4.00 | < 4.00 | 250 | > 100 | – | – | – | – | – | –
Cetyltrimethylammonium bromide | – | – | – | – | – | – | – | – | – | – | – | – | 22 | 15.6 | 15.6
